Assay results published in patent publication US12365650B2, “Deuterated organic compounds and uses thereof” (ENGRAIL THERAPEUTICS, INC., priority 2023, dated 2025).
Marks after values point to notes of the source that are not given here.

Experiments:
human 5-HT1A receptor = target: T1, human 5-HT1A receptor (Homo sapiens, UniProt P08908); assay: cAMP HTRF functional assay, 5-HT1A agonist mode; type: cell-based; details: for 5-HT1A functional character: agonist mode, summary of Tables 4-5; for Top % Activation at maximal concentration, 5-HT1A (agonist mode): cAMP, % of reference agonist activity at its EC100
T1 sequence (P08908 1-422): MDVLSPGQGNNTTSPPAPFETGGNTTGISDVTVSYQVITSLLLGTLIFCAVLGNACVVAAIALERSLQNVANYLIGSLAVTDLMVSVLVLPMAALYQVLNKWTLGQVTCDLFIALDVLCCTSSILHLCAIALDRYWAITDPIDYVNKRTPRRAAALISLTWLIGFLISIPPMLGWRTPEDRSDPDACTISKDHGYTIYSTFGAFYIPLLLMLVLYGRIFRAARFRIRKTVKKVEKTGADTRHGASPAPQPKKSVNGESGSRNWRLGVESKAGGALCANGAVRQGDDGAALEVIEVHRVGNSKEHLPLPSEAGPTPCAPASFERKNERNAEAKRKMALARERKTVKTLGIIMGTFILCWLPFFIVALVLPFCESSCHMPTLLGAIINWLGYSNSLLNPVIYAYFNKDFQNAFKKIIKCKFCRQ
Description: (§1) Example 4—Agonist or Antagonist Activity on Recombinant Human Dopamine and Serotonin Receptors Using IPOne HTRF and cAMP HTRF Assays
(§2) IP-One and cAMP HTRF assays are conducted with recombinant cell lines.
(§3) Agonist activity of test compounds is expressed as a percentage of the activity of the reference agonist at its EC100 concentration. Antagonist activity of the test compound is expressed as a percentage of the inhibition of reference agonist activity at its EC80 concentration.

5-HT2A receptor [1] = target: T2, 5-HT2A receptor (Homo sapiens, UniProt P28223); assay: IP-One HTRF functional assay, 5-HT2A agonist mode; type: cell-based; set-up: expressed in transfected cells; details: % of reference agonist activity at its EC100
Description: as §1, §2, §3

5-HT2A receptor [2] = target: T2, 5-HT2A receptor; type: binding

T2 sequence (P28223 whole entry): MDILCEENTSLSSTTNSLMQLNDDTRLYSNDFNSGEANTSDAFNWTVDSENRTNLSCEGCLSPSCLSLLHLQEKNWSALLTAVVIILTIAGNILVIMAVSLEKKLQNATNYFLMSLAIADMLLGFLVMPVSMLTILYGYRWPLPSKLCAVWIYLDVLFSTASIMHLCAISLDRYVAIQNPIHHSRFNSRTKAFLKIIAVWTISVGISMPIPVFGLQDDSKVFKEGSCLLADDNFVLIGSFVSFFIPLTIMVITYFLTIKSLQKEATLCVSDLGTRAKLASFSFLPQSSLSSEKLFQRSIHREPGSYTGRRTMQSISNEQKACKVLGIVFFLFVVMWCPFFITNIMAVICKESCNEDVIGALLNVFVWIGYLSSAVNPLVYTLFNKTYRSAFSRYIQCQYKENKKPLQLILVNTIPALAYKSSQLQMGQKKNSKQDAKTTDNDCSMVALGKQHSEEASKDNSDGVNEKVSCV

Structure (SMILES)	5-HT1A functional character (human 5-HT1A receptor)	Top % Activation at maximal concentration, 5-HT1A (agonist mode) (human 5-HT1A receptor)	Top % Activation at maximal concentration, 5-HT2A (agonist mode) (5-HT2A receptor [1])	binding to the 5-HT2A receptor in vitro (5-HT2A receptor [2])
[2H]c1c([2H])c([2H])c(CN2CC[C@@H](NC(=O)c3cc(Cl)c(NC)cc3OC)[C@H]2C)c([2H])c1[2H] [Ex. 1 (10), 5-Chloro-N-((2R,3R)-1-((pentadeuterophenyl)methyl)-2-methylpyrrolidin-3-yl)-2-methoxy-4-(methylamino)benzamide]	strong 5-HT1A agonist	71^d %	84^d %	–
[2H]C([2H])([2H])Oc1cc(NC)c(Cl)cc1C(=O)N[C@@H]1CCN(Cc2ccccc2)[C@@H]1C [Ex. 2 (18), 5-Chloro-N-((2R,3R)-1-((phenyl)methyl)-2-methylpyrrolidin-3-yl)-2-trideuteromethoxy-4-(methylamino)benzamide]	5-HT1A partial agonist	59%	94%	–
CCN1CCC[C@@H]1CNC(=O)c1c(OC)ccc(Br)c1OC [R-remoxipride]	–	–	–	do not even bind
CCN1CCC[C@H]1CNC(=O)c1c(OC)ccc(Br)c1OC [S-remoxipride]	–	–	–	do not even bind
